Here are results for 2 molecules from patent US20150374705A1, “Substances for treatment or relief of pain” (Shanghai Institues for Biological Sciences, priority 2012, published 2015).

Data set [1] relates to brain microvessel endothelial cells co-cultivated with astrocyte. The data set is described as follows: In vitro blood-brain barrier model (BBBM). In kind it is in vitro ADME. From the text: Through in vitro blood-brain barrier model (BBBM), whether the substance to be measured could effectively pass blood brain barrier was detected. In this experiment, brain microvessl endothelial cells were co-cultivated with astrocyte, and then whether the substance to be measured could effectively pass cellular membrane was detected. For detailed method, please refer to related literature (Culot M et al., An in vitro blood-brain barrier model for high throughput (HTS) toxicological screening. Toxicol In Vitro. 2008 April; 22(3):799-811).

The target in data set [2] is T1, Human recombinant GABAA receptor containing α3 subunit (Homo sapiens, UniProt P18507+P34903).
T1 construct: expressed in transfected cells; host or cells: 293 cell line
The data set is described as follows: Electrophysiological inverse agonist efficacy on GABA-induced current. In kind it is cell-based. The conditions noted are these: change of GABA-induced current; negative = inhibition. On the procedure: (§1) Different subunits of GABAA receptor were expressed in cell lines, including human kidney epithelial cell line, 293 cell line or L(tk−) cell line. The cells were cultured in medium, and such cells were used as the cellular model for screening drugs to suppress pain. a subunit, β subunit and γ subunit are indispensable for one complete functional GABAA receptor.
(§2) (d) simultaneously expressing α3 subunit (for the protein sequence, see GenBank accession number NM_000808.3), β3 subunit and γ2 subunit in 293 cell line, forming the GABAA receptor containing α3 subunit;
The inventors used electrophysiological methods to measure the inverse agonist efficacy of the substances to be measured, see the method described in literature (Ballard T M et al., RO4938581, a novel cognitive enhancer acting at GABAA alpha5 subunit-containing receptors. Psychopharmacology (Berl). 2009 January; 202 (1-3): 207-23). […] Many methods can be used by those skilled in the art to evaluate the binding capacity of the ligand of α5-GABAA receptor to the α5-GABAA receptor, including but not limiting to the method above.
Inverse agonist efficacy represents the inhibition percentage of the candidate substance on the current induced by GABA through α5-GABAA receptor=(the current intensity induced by GABA through α5-GABAA receptor with the existence of candidate substance−the current intensity induced by GABA through α5-GABAA receptor without the existence of candidate substance)/the current intensity induced by GABA through α5-GABAA receptor without the existence of candidate substance.

Data set [3] addresses T2, Human recombinant GABAA receptor containing α5 subunit (α5, β3, γ2) (Homo sapiens, UniProt P18507+P31644).
T2 construct: expressed in transfected cells; host or cells: 293 cell line
The data set is described as follows: Competitive radioligand binding ([3H]Ro-0151788) on membranes of 293 cells, Ki. The note with it: human recombinant GABAA subtype containing α5; read-out: Affinity, nM (α5). On the procedure: as §1
(§3) In this example, the inventors established the following cellular models:
(a) simultaneously expressing α5 subunit (for the protein sequence, see GenBank accession number NM_001165037.1), β3 subunit (for the protein sequence, see GenBank accession number NM_021912.4) and γ2 subunit (for the protein sequence, see GenBank accession number NM_198904.2) in 293 cell line, forming the GABAA receptor containing α5 subunit;
(§4) Each of the (a) to (d) above could form a GABAA receptor with complete function.
(§5) Then, the cellular membrane was extracted and the protein concentration was measured. The competitive binding of the substances to be measured and radiolabelled compounds (e.g. 1 nM [^3H]Ro-0151788) were detected respectively to calculate the Ki value of the substances to be measured, see the method described in literature (Ballard T M et al., RO4938581, a novel cognitive enhancer acting at GABAA alpha5 subunit-containing receptors. Psychopharmacology (Berl). 2009 January; 202(1-3): 207-23). If the binding inhibition constant Ki (nM) of α5-GABAA receptor with the candidate substances in experimental group is less than the Ki of the receptor containing other a subunit (α1 subunit, α2 subunit or α3 subunit), then the candidate substance is a potential drugs for preventing, relieving or treating pain. Many methods can be used by those skilled in the art to evaluate the binding capacity of the ligand of α5-GABAA receptor to the α5-GABAA receptor, including but not limiting to the method above.

In data set [4] the test system is α5-GABAA receptor in central nervous system. The note with it: in vivo, Jones et al. 2006; cited from earlier work.
Data set [5] concerns the target T3, Human recombinant GABAA receptor containing α3 subunit (α3, β3, γ2) (Homo sapiens, UniProt P18507+P34903).
T3 construct: expressed in transfected cells; host or cells: 293 cell line
The data set is described as follows: Competitive radioligand binding ([3H]Ro-0151788) on membranes of 293 cells, Ki. The note with it: human recombinant GABAA subtype containing α3; read-out: Affinity, nM (α3). Here is the method: as §1, §3, §2, §4, §5

The target in data set [6] is T4, Human recombinant α5-GABAA receptor (Homo sapiens, UniProt P18507+P31644).
T4 construct: expressed in transfected cells; host or cells: 293 cell line
The conditions noted are these: Jones et al. 2006; cited from earlier work.

Data set [7] deals with T5, Human recombinant GABAA receptor containing α2 subunit (α2, β3, γ2) (Homo sapiens, UniProt P18507+P47869).
T5 construct: expressed in transfected cells; host or cells: 293 cell line
The data set is described as follows: Competitive radioligand binding ([3H]Ro-0151788) on membranes of 293 cells, Ki. The note with it: human recombinant GABAA subtype containing α2; read-out: Affinity, nM (α2). On the procedure:
as §1, §3
(b) simultaneously expressing α1 subunit (GenBank accession number: NM_001127648.1), β3 subunit and γ2 subunit in 293 cell line, forming the GABAA receptor containing α1 subunit; • (c) simultaneously expressing α2 subunit (for the protein sequence, see GenBank accession number NM_000813.2), β3 subunit and γ2 subunit in 293 cell line, forming the GABAA receptor containing α2 subunit;
as §4, §5

In data set [8] the test system is rat model of inflammatory and neuropathic pain. The note with it: Munro G et al., Neuropharmacology 2011; cited from earlier work.
For data set [9] the following is noted: human, Phase II, cited from earlier work.

Entries after “also recorded” stand apart in the source; their conditions may differ. Read-outs that look alike come from different tables or passages of the source.

On to `Cn1ncnc1COc1nn2c(-c3cc(CO)on3)nncc2c1C(C)(C)C` [MRK016-M3, (3-(3-tert-butyl-2-((2-methyl-2H-1,2,4-triazol-3-yl)methoxy)pyrazolo [1,5-d][1,2,4]triazin-7-yl)isoxazol-5-yl)methanol], for which, in data set [1], the “Passing blood brain barrier” value is “cannot significantly pass blood brain barrier”. Also, the “Inverse agonist efficacy, % (α3)” value in [2] is given as −15%. Besides, the Ki in data set [3] was found to be 1.1 nM. Moreover, in [4], the “Binding to α5-GABAA receptor in brain / inhibition of (3H)Ro-15-1788 binding in center” value is given as “not capable of binding the α5-GABAA receptor in brain; also recorded: cannot significantly inhibit; also recorded: could hardly enter into the brain” and the “Inhibition rate of the binding of (3H)Ro-15-1788 in center” value is recorded as “about 12%”. Also, the Ki in [5] stood at 0.69 nM. The “Inverse agonist effect of α5-GABAA receptor” value in data set [6] is reported as “significant inverse agonist effect”.

For `Cc1cc(-c2nnc3c4ccccc4c(OCC4=CC(C)C=N4)nn23)no1` (stereo not drawn) [α5IA], the figures for the Ki in data set [7], in [3] and in [5] were 0.58 nM, 0.66 nM and 0.61 nM, respectively. The “Effect on treating pain reported in literature” value in data set [8] is “no effect”. Moreover, in [2], the “Inverse agonist efficacy, % (α3)” value was 4%. Besides, the “Toxicity in Phase II clinical trial” value in data set [9] is given as “certain toxic problems”; in data set [9] (listed as A5I), “renal toxicity”.
